Test results published in PMC11682119 (Scientific Reports, 2024).

Molecular target: T1, hALDH2 (Homo sapiens, UniProt P05091)
T1 sequence (P05091 18-517): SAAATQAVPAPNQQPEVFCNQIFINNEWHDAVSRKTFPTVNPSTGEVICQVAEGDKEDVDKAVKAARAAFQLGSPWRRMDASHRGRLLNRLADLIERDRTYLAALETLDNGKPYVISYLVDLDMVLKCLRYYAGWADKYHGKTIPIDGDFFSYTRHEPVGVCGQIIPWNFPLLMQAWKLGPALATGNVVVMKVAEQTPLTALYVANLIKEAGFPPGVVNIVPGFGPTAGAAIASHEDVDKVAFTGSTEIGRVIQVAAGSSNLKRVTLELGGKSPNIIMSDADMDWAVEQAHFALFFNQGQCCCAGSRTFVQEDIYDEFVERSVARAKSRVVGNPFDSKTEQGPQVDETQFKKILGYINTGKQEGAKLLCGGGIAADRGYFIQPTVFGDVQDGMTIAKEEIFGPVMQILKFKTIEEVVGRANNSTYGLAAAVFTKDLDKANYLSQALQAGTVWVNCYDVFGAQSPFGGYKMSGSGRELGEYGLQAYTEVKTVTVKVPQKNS
Format: biochemical

CN(C)C(=S)SSC(=S)N(C)C [thiram]
IC50: 1600 nM
